Results on one molecule are retold here after patent US20130336889A1, “NANOPARTICLE AND METHOD FOR DETECTING OR TREATING A TUMOR USING THE SAME” (NATIONAL TAIWAN UNIVERSITY, priority 2012, published 2013).

Data set [1] can be described thus: Absorbance spectra (UV-vis). Type of data set: physicochemical.
In data set [2] the test system is HCT-116 cells. Put plainly: Cytotoxicity by MTT assay without or with NIR irradiation. The class given is cell-based, human. The conditions noted are these: 2.5 μg/mL. The method, then: Cell viability was determined with the MTT assay and a scanning multiwell ELISA reader (Microplate Autoreader EL311, Bio-Tek Instruments Inc., Winooski, Vt., USA). The fraction of live cells was calculated by dividing the mean optical density obtained from treated cells by the mean optical density from untreated control cells.

In the case of `CCCN1C(=CC=C2CCCC(C=CC3=[N+](CCC)c4ccccc4C3(C)C)=C2Cl)C(C)(C)c2ccccc21.[I-]` [free IR-780 iodide, IR-780 iodide], in data set [1] (IR-780 dye diluted in THF, IR-780 micelles in PBS), the “maximum wavelength (λmax) of absorption” value is recorded as “about 795 nm”. Moreover, in data set [1] (aggregated in aqueous buffer, broad and blue-shifted), the “λmax of absorption peak” value is recorded as 775 nm. The excess cells killed in data set [2] (808 nm 0.6 W/cm^2 NIR irradiation 10 min) was 0.3%; in data set [2] (808 nm 0.6 W/cm^2 NIR irradiation 20 min) it was 26.8%.
